This assay concerns the target PIN1 (Homo sapiens, UniProt Q13526). Nature of the assay: NMR methyl chemical shift perturbation titration; intermolecular NOEs and NMR2 complex structure. Type of assay: binding.

Chain of PIN1 (Q13526 whole entry): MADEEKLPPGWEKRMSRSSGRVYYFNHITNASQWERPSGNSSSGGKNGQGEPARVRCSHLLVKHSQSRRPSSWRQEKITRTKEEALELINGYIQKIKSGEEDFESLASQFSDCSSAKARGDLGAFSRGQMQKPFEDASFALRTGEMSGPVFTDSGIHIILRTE

For the compound `Cc1cccc(-c2nc(C(=O)O)c(C)[nH]2)c1` [compound 1], the Kd (usually the free concentration of one partner at which half of the binding sites on the other are occupied at equilibrium, for simple one-to-one binding) was determined as 260 µM. To `Cc1nc(-c2cccc(C(F)(F)F)c2)[nH]c1C(=O)O` [compound 3] belongs 6700 µM. For the compound `Cc1nc(-c2cccc(Cl)c2)[nH]c1C(=O)O` [compound 2], the equilibrium dissociation constant (Kd) is 670 µM.

The values are drawn from PMC7649837, “Protein–fragment complex structures derived by NMR molecular replacement” (RSC Medicinal Chemistry, 2020).
